Assay results: PubChem BioAssay (NCI)
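How tested: cells in 96-well plates exposed to compound for 48 hours at five concentrations. TGI denotes the concentration required for complete inhibition of growth.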

Tests used:
Assay in all cases: inhibition of tumour cell growth, NCI panel, 48 h
[1] = test system: 786-0 renal
[2] = test system: A498 renal
[3] = test system: A549 NSCLC
[4] = test system: ACHN renal
[5] = test system: BT-549 breast
[6] = test system: CAKI-1 renal
[7] = test system: CCRF-CEM leukemia
[8] = test system: COLO 205 colon
[9] = test system: DU-145 prostate
[10] = test system: EKVX NSCLC
[11] = test system: HCT-116 colon
[12] = test system: HCT-15 colon
[13] = test system: HL-60(TB) leukemia
[14] = test system: HOP-62 NSCLC
[15] = test system: HOP-92 NSCLC
[16] = test system: HS 578T breast
[17] = test system: HT29 colon
[18] = test system: IGROV1 ovarian
[19] = test system: K-562 leukemia
[20] = test system: KM12 colon
[21] = test system: LOX IMVI melanoma
[22] = test system: M14 melanoma
[23] = test system: MCF7 breast
[24] = test system: MDA-MB-231 breast
[25] = test system: MDA-MB-435
[26] = test system: MDA-N
[27] = test system: MOLT-4 leukemia
[28] = test system: NCI-H226 lung
[29] = test system: NCI-H23 lung
[30] = test system: NCI-H460 lung
[31] = test system: NCI/ADR-RES ovarian
[32] = test system: OVCAR-3 ovarian
[33] = test system: OVCAR-5 ovarian
[34] = test system: OVCAR-8 ovarian
[35] = test system: PC-3 prostate
[36] = test system: RPMI-8226 leukemia
[37] = test system: SF-268 CNS
[38] = test system: SF-295 CNS
[39] = test system: SF-539 CNS
[40] = test system: SK-MEL-2 melanoma
[41] = test system: SK-MEL-28 melanoma
[42] = test system: SK-MEL-5 melanoma
[43] = test system: SK-OV-3 ovarian
[44] = test system: SN12C renal
[45] = test system: SNB-19 CNS
[46] = test system: SNB-75 CNS
[47] = test system: SR leukemia
[48] = test system: SW-620 colon
[49] = test system: T-47D breast
[50] = test system: TK-10 renal
[51] = test system: U251 CNS
[52] = test system: UACC-257 melanoma
[53] = test system: UACC-62 melanoma
[54] = test system: UO-31 renal
[55] = test system: DLD-1 colon
[56] = test system: DMS 114 small cell lung
[57] = test system: DMS 273 small cell lung
[58] = test system: HCC-2998 colon
[59] = test system: HOP-18 NSCLC
[60] = test system: KM20L2 colon
[61] = test system: LXFL 529 NSCLC
[62] = test system: M19-MEL melanoma
[63] = test system: MALME-3M melanoma
[64] = test system: NCI-H522 lung
[65] = test system: OVCAR-4 ovarian
[66] = test system: RXF 393 renal
[67] = test system: SNB-78 CNS

With `O=c1[nH]c(N/N=C\C(=N/Nc2nc3ccccc3c(=O)[nH]2)C(O)C(O)C(O)CO)nc2ccccc12` (centres undefined) the TGI [1] was > 100 µM, the TGI [2] was > 100 µM and the TGI [3] was > 100 µM. The TGI [4] was > 100 µM, the TGI [5] was > 100 µM and the TGI [6] was > 100 µM. The TGI [7] was > 100 µM, the TGI [8] was > 100 µM and the TGI [9] was > 100 µM. The TGI [10] was > 100 µM, the TGI [11] was > 100 µM and the TGI [12] was > 100 µM. The TGI [13] was > 100 µM, the TGI [14] was > 100 µM and the TGI [15] was > 100 µM. For the same compound, the TGI [16] was > 100 µM, the TGI [17] was > 100 µM and the TGI [18] was > 100 µM. For the same compound, the TGI [19] was > 100 µM, the TGI [20] was > 100 µM and the TGI [21] was > 100 µM. The TGI [22] was > 100 µM, the TGI [23] was > 100 µM and the TGI [24] was > 100 µM. The TGI [25] was > 100 µM, the TGI [26] was > 100 µM and the TGI [27] was > 100 µM. The TGI [28] was > 100 µM, the TGI [29] was > 100 µM and the TGI [30] was > 100 µM. For the same compound, the TGI [31] was > 100 µM, the TGI [32] was > 100 µM and the TGI [33] was > 100 µM. For the same compound, the TGI [34] was > 100 µM, the TGI [35] was > 100 µM and the TGI [36] was > 100 µM. The TGI [37] was > 100 µM, the TGI [38] was > 100 µM and the TGI [39] was > 100 µM. For the same compound, the TGI [40] was > 100 µM, the TGI [41] was > 100 µM and the TGI [42] was > 100 µM. The TGI [43] was > 100 µM, the TGI [44] was > 100 µM and the TGI [45] was > 100 µM. For the same compound, the TGI [46] was > 100 µM, the TGI [47] was > 100 µM and the TGI [48] was > 100 µM. The TGI [49] was > 100 µM, the TGI [50] was > 100 µM and the TGI [51] was > 100 µM. The TGI [52] was > 100 µM, the TGI [53] was > 100 µM and the TGI [54] was > 100 µM.
For `CC(=O)OCC1OC(OC2C(COC(C)=O)OC(Sc3ccccc3C)C(OC(C)=O)C2OC(C)=O)C(OC(C)=O)C(OC(C)=O)C1OC(C)=O` (centres undefined), the TGI [1] was > 100 µM, the TGI [2] was > 100 µM and the TGI [3] was > 100 µM. The TGI [4] was > 100 µM, the TGI [6] was > 100 µM and the TGI [8] was > 100 µM. For the same compound, the TGI [55] was > 100 µM, the TGI [56] was > 100 µM and the TGI [57] was > 100 µM. The TGI [10] was > 100 µM, the TGI [58] was > 100 µM and the TGI [11] was > 100 µM. The TGI [12] was > 100 µM, the TGI [59] was > 100 µM and the TGI [14] was > 100 µM. The TGI [15] was > 100 µM, the TGI [17] was > 100 µM and the TGI [18] was > 100 µM. For the same compound, the TGI [19] was > 100 µM, the TGI [20] was > 100 µM and the TGI [60] was > 100 µM. The TGI [61] was > 100 µM, the TGI [22] was > 100 µM and the TGI [62] was > 100 µM. The TGI [63] was > 100 µM, the TGI [27] was > 100 µM and the TGI [28] was > 100 µM. For the same compound, the TGI [29] was > 100 µM, the TGI [30] was > 100 µM and the TGI [64] was > 100 µM. The TGI [65] was > 100 µM, the TGI [33] was > 100 µM and the TGI [36] was > 100 µM. The TGI [66] was > 100 µM, the TGI [37] was > 100 µM and the TGI [38] was > 100 µM. The TGI [39] was > 100 µM, the TGI [40] was > 100 µM and the TGI [41] was > 100 µM. For the same compound, the TGI [42] was > 100 µM, the TGI [43] was > 100 µM and the TGI [44] was > 100 µM. For the same compound, the TGI [45] was > 100 µM, the TGI [46] was > 100 µM and the TGI [67] was > 100 µM. The TGI [47] was > 100 µM, the TGI [48] was > 100 µM and the TGI [50] was > 100 µM. The TGI [51] was > 100 µM, the TGI [52] was > 100 µM and the TGI [53] was > 100 µM. The TGI [54] was > 100 µM.
In the case of `COc1ccc2c(c1)-c1c(c3cc(OC)ccc3n1CCCN(C)C)CC2`, the TGI [1] is reported as > 100 µM, the TGI [2] is reported as 31.3 µM and the TGI [3] is reported as 50.6 µM. The TGI [4] was 35.9 µM, the TGI [5] was 32.2 µM and the TGI [6] was 28.1 µM. It also gave a TGI [7] of 14.1 µM, a TGI [8] of 5.9 µM and a TGI [9] of 33.4 µM. For the same compound, the TGI [10] was 31.4 µM, the TGI [58] was 10.2 µM and the TGI [11] was 51.1 µM. It also gave a TGI [12] of 32.1 µM, a TGI [13] of 55.3 µM and a TGI [14] of 29.2 µM. The TGI [15] was 33.8 µM, the TGI [16] was 20.5 µM and the TGI [17] was 13.9 µM. For the same compound, the TGI [18] was > 36.2 µM, the TGI [19] was 13.2 µM and the TGI [20] was 21.8 µM. For the same compound, the TGI [21] was 20.9 µM, the TGI [22] was 4.8 µM and the TGI [63] was 5.47 µM. For the same compound, the TGI [23] was 26.5 µM, the TGI [24] was 30.5 µM and the TGI [25] was 15.1 µM. It also gave a TGI [26] of 16 µM, a TGI [27] of 30.9 µM and a TGI [28] of 6.82 µM. It also gave a TGI [29] of 37 µM, a TGI [30] of 42.9 µM and a TGI [64] of 25.7 µM. The TGI [31] was 31.4 µM, the TGI [32] was 29.6 µM and the TGI [65] was 30.8 µM. The TGI [33] was 28.4 µM, the TGI [34] was 30.7 µM and the TGI [35] was 25.3 µM. The TGI [36] was 26 µM, the TGI [66] was 20.2 µM and the TGI [37] was 26.2 µM. It also gave a TGI [38] of 16.8 µM, a TGI [40] of 31 µM and a TGI [41] of 13 µM. It also gave a TGI [42] of 8.29 µM, a TGI [43] of 32.7 µM and a TGI [44] of 28.5 µM. The TGI [45] was 34 µM, the TGI [46] was 13.9 µM and the TGI [47] was 22.1 µM. The TGI [48] was 32.1 µM, the TGI [49] was 24.8 µM and the TGI [50] was 39.7 µM. For the same compound, the TGI [51] was 27 µM, the TGI [52] was 11.6 µM and the TGI [53] was 20.6 µM. The TGI [54] was 26.7 µM.
